Experimental data as given in patent US20240150365A1 (Hotspot Therapeutics, Inc., priority 2022, published 2024).
pIC50: −log10 of the molar value. Like-named read-outs stand apart in the source and are kept apart here.

Key:
[1] = test system: NF-kB; assay: NF-kB reporter assay in Jurkat cells stimulated with aCD3/aCD28/PMA; format: cell-based; conditions: Jurkat cells, 1 hr compound incubation, aCD3/aCD28/PMA stimulation 4 hr, One-Glo readout, read-out: NF-kB Reporter Assay IC50
Summary of the method: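 Stimulation used final aCD3 5 μg/mL, aCD28 5 μg/mL and PMA 0.03 μg/mL for 4 hr at 37° C, after 1 hr compound pretreatment of 25,000 serum-starved Jurkat cells per well. One-Glo luminescence gave IC50 values.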

[2] = target: T1, MALT1 (Homo sapiens, UniProt Q9UDY8); assay: MALT-1 Fluorogenic Peptide Cleavage Assay (MALT1 inhibition assay); format: biochemical; conditions: Avi-tagged FL MALT-1, Ac-LRSR-AMC peptide substrate, 30 min pre-incubation, 90 min reaction
T1 construct: Avi-tagged FL MALT-1 (Pharmaron, stored at −70° C.); Avi tag
T1 sequence (Q9UDY8 1-824): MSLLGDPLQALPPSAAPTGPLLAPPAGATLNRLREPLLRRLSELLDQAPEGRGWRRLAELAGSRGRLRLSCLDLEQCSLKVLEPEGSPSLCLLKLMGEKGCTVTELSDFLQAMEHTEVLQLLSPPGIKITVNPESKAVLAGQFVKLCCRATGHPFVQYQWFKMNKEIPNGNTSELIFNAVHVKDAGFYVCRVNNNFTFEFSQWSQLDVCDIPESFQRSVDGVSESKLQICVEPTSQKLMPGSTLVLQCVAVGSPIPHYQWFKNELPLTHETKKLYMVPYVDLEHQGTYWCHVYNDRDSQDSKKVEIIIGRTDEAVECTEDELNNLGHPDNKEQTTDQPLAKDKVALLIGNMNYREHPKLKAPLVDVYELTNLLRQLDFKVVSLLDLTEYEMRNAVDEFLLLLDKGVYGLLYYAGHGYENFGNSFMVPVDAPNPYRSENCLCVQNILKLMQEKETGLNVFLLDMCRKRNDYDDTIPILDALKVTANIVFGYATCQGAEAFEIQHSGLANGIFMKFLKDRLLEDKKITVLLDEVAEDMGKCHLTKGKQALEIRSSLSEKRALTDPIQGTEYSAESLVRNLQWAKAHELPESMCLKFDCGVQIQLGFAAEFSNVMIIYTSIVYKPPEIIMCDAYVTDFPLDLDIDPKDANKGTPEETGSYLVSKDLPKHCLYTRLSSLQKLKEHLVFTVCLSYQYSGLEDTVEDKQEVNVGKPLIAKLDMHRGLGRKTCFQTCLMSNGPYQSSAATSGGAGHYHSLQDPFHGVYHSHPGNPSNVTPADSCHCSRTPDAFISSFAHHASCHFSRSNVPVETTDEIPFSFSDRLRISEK
Summary of the method: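 IC50 from sigmoidal fits of % inhibition, with fluorescence (ex 342, em 441 nm) from AMC released from the quenched LRSR peptide after 90 min at room temperature. Full-length Avi-tagged MALT1 saw compound for 30 min first; final DMSO 2%.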

pIC50 ([1]; Homo sapiens, Jurkat)	pIC50 [2]	pIC50 [1]	SMILES
< 5.60	< 5.60	–	COc1ccc2cnn(C)c2c1NS(=O)(=O)c1ccc(-n2cc(C(C)(C)O)cn2)nc1 [Example I-278, 6-(4-(2-hydroxypropan-2-yl)-1H-pyrazol-1-yl)-N-(6-methoxy-1-methyl-1H-indazol-7-yl)pyridine-3-sulfonamide]
> 6.40	< 5.60	–	Cn1ncc2cccc(NS(=O)(=O)c3ccc(-n4cc(CO)cn4)nc3)c21 [Example I-279]
> 6.40	6.00 to 6.40	–	COc1ccc2cnn(C)c2c1NS(=O)(=O)c1ccc(-n2cc(C(C)O)cn2)nc1 (stereo not drawn) [Example I-280, 6-(4-(1-Hydroxyethyl)-1H-Pyrazol-1-yl)-N-(6-Methoxy-1-Methyl-1H-Indazol-7-yl)Pyridine-3-Sulfonamide]
–	< 5.60	> 6.40	CC(O)c1cnn(-c2ccc(S(=O)(=O)Nc3cccc4cnn(C)c34)cn2)c1 (stereo not drawn) [Example I-283]
> 6.40	> 6.40	–	COc1ccc2cnn(C)c2c1NS(=O)(=O)c1ccc(-n2cnc(C(F)(F)F)c2)nc1 [Example I-286, N-(6-methoxy-1-methylindazol-7-yl)-6-[4-(trifluoromethyl)imidazol-1-yl]pyridine-3-sulfonamide]
> 6.40	5.60 to 6.00	–	COc1ccc2cnn(C)c2c1NS(=O)(=O)c1ccc(-c2cnn3c2CCC3)nc1 [Example I-287]
6.00 to 6.40	< 5.60	–	COc1ncc2cnn(C)c2c1NS(=O)(=O)c1ccc(-c2cnn3c2CCC3)nc1 [Example I-289]
> 6.40	> 6.40	–	[2H]C([2H])([2H])n1ncc2cnc(OC)c(NS(=O)(=O)c3ccc(-n4cc(C(F)(F)F)cn4)nc3)c21 [Example I-290, N-(6-methoxy-1-(methyl-d3)-1H-pyrazolo[4,3-c]pyridin-7-yl)-6-(4-(trifluoromethyl)-1H-pyrazol-1-yl)pyridine-3-sulfonamide]
> 6.40	> 6.40	–	[2H]C([2H])([2H])n1ncc2cnc(OC)c(N(C)S(=O)(=O)c3ccc(-n4cc(C(F)(F)F)cn4)nc3)c21 [Example I-291, N-(6-methoxy-1-(methyl-d3)-1H-pyrazolo[4,3-c]pyridin-7-yl)-N-methyl-6-(4-(trifluoromethyl)-1H-pyrazol-1-yl)pyridine-3-sulfonamide]
6.00 to 6.40	< 5.60	–	O=S(=O)(c1ccc(-n2cc(C(F)(F)F)cn2)nc1)N1CCCn2ncc3cccc1c32 [Example I-292, 1-((6-(4-(trifluoromethyl)-1H-pyrazol-1-yl)pyridin-3-yl)sulfonyl)-1,2,3,4-tetrahydro-[1,4]diazepino[3,2,1-hi]indazole]
6.00 to 6.40	< 5.60	–	O=S(=O)(c1ccc(-n2cc(C(F)(F)F)cn2)nc1)N1CCCCn2ncc3cccc1c32 [Example I-293, 1-((6-(4-(trifluoromethyl)-1H-pyrazol-1-yl)pyridin-3-yl)sulfonyl)-2,3,4,5-tetrahydro-1H-[1,4]diazocino[3,2,1-hi]indazole]
> 6.40	< 5.60	–	Cn1ncc2cccc(NS(=O)(=O)c3ccc(-n4nc(C(F)(F)F)c5c4CCOC5)nc3)c21 [Example I-298]
5.60 to 6.00	5.60 to 6.00	–	COc1ncc2cnn(C)c2c1NS(=O)(=O)c1ccc(-c2cnn3c2COCC3)nc1 [Example I-301]
> 6.40	< 5.60	–	Cn1ncc2cccc(NS(=O)(=O)c3ccc(-c4cnn5c4OCCC5)nc3)c21 [Example I-302, N-(1-methylindazol-7-yl)-6-{5H,6H,7H-pyrazolo[3,2-b][1,3]oxazin-3-yl}pyridine-3-sulfonamide]
6.00 to 6.40	< 5.60	–	COc1ccc2cnn(C)c2c1NS(=O)(=O)c1ccc(-c2cnn3c2OCCC3)nc1 [Example I-303, 6-(6,7-dihydro-5H-pyrazolo[5,1-b][1,3]oxazin-3-yl)-N-(6-methoxy-1-methyl-1H-indazol-7-yl)pyridine-3-sulfonamide]
6.00 to 6.40	< 5.60	–	COc1ncc2cnn(C)c2c1NS(=O)(=O)c1ccc(-c2nn(C)c3c2COCC3)nc1 [Example I-305]
6.00 to 6.40	< 5.60	–	COc1ccc2cnn(C)c2c1NS(=O)(=O)c1ccc(-c2nn(C)c3c2COCC3)nc1 [Example I-307]

Continued, molecule first:

SMILES	pIC50 ([1]; Homo sapiens, Jurkat)	pIC50 [2]	pIC50 [1]
Cn1ncc2cccc(NS(=O)(=O)c3ccc(-n4cc(C(C)(C)C)cn4)nc3)c21 [Example I-276, 6-(4-tert-butylpyrazol-1-yl)-N-(1-methylindazol-7-yl)pyridine-3-sulfonamide]	> 6.40	< 5.60	–
Cn1ncc2cccc(NS(=O)(=O)c3ccc(-n4cc(C(C)(C)O)cn4)nc3)c21 [Example I-277]	6.00 to 6.40	< 5.60	–
COc1ccc2cnn(C)c2c1NS(=O)(=O)c1ccc(-n2cc(C(C)O)cn2)nc1 (stereo not drawn) [Example I-281, 6-(4-(1-Hydroxyethyl)-1H-Pyrazol-1-yl)-N-(6-Methoxy-1-Methyl-1H-Indazol-7-yl)Pyridine-3-Sulfonamide]	–	5.60 to 6.00	> 6.40
CC(O)c1cnn(-c2ccc(S(=O)(=O)Nc3cccc4cnn(C)c34)cn2)c1 (stereo not drawn) [Example I-282]	6.00 to 6.40	< 5.60	–
COc1ccc2cnn(C)c2c1NS(=O)(=O)c1ccc(-n2cc(CO)cn2)nc1 [Example I-284, 6-[4-(hydroxymethyl)pyrazol-1-yl]-N-(6-methoxy-1-methylindazol-7-yl)pyridine-3-sulfonamide]	> 6.40	6.00 to 6.40	–
COc1ccc2cnn(C)c2c1NS(=O)(=O)c1ccc(-n2cc(C(C)(C)C)cn2)nc1 [Example I-285, 6-(4-tert-butylpyrazol-1-yl)-N-(6-methoxy-1-methylindazol-7-yl)pyridine-3-sulfonamide]	> 6.40	6.00 to 6.40	–
Cc1n[nH]c2cccc(NS(=O)(=O)c3ccc(-c4cnn5c4CCC5)nc3)c12 [Example I-288]	> 6.40	< 5.60	–
O=S(=O)(c1ccc(-n2cc(C(F)(F)F)cn2)nc1)N1CCn2ncc3cccc1c32 [Example I-294, 1-((6-(4-(trifluoromethyl)-1H-pyrazol-1-yl)pyridin-3-yl)sulfonyl)-2,3-dihydro-1H-pyrazolo[1,5,4-de]quinoxaline]	5.60 to 6.00	< 5.60	–
COc1ccc2[nH]nc(C)c2c1NS(=O)(=O)c1ccc(-c2cnn3c2CCC3)nc1 [Example I-295]	> 6.40	< 5.60	–
C=Cn1ncc2cccc(NS(=O)(=O)c3ccc(-n4cc(C(F)(F)F)cn4)nc3)c21 [Example I-296, 6-(4-(trifluoromethyl)-1H-pyrazol-1-yl)-N-(1-vinyl-1H-indazol-7-yl)pyridine-3-sulfonamide]	> 6.40	5.60 to 6.00	–
C=Cn1cc2cccc(NS(=O)(=O)c3ccc(-n4cc(C(F)(F)F)cn4)nc3)c2n1 [Example I-297]	< 5.60	< 5.60	–
COc1ncc2cnn(C)c2c1NS(=O)(=O)c1ccc(-c2cnn3c2OCCC3)nc1 [Example I-299]	< 5.60	< 5.60	–
COc1ncc2cnn(C)c2c1NS(=O)(=O)c1ccc(-n2nc(C(F)(F)F)c3c2CCOC3)nc1 [Example I-300, N-(6-methoxy-1-methyl-1H-pyrazolo[4,3-c]pyridin-7-yl)-6-(3-(trifluoromethyl)-6,7-dihydropyrano[4,3-c]pyrazol-1(4H)-yl)pyridine-3-sulfonamide]	6.00 to 6.40	> 6.40	–
COc1ccc2cnn(C)c2c1NS(=O)(=O)c1ccc(-n2nc(C(F)(F)F)c3c2CCOC3)nc1 [Example I-304, N-(6-methoxy-1-methyl-1H-indazol-7-yl)-6-(3-(trifluoromethyl)-6,7-dihydropyrano[4,3-c]pyrazol-1(4H)-yl)pyridine-3-sulfonamide]	> 6.40	> 6.40	–
Cn1nc(-c2ccc(S(=O)(=O)Nc3cccc4cnn(C)c34)cn2)c2c1CCOC2 [Example I-306, 6-(1-methyl-1,4,6,7-tetrahydropyrano[4,3-c]pyrazol-3-yl)-N-(1-methyl-1H-indazol-7-yl)pyridine-3-sulfonamide]	> 6.40	< 5.60	–
COc1ccc2cnn(C)c2c1NS(=O)(=O)c1ccc(-c2cnn3c2COCC3)nc1 [Example I-308]	> 6.40	5.60 to 6.00	–
